The values that follow are results of earlier work, collected in patent US9999656B2, “Treatment of short bowel syndrome patients with colon-in-continuity” (Shire-NPS Pharmaceuticals, Inc., priority 2004, dated 2018).

The conditions of series [1]: GLP-2; approximately; cited from earlier work.
The test system of a further series is SBS jejunostomy patients. As to conditions: cited from earlier work.

On to glucagon-like peptide-2 [native GLP-2], for which the half-life result in series [1] is on record as “approximately seven”. Also, the “effect on wet weight absorption” value in the series with SBS jejunostomy patients (native GLP-2 400 μg twice daily for 35 days, p=0.040) is 420 ± 480 g/day. Further, the “intestinal wet weight absorption (in words)” value in the series with SBS jejunostomy patients (open-label study, pharmacologic doses, SBS jejunostomy patients (Jeppesen et al.)) was “significant improvement in intestinal wet weight absorption”.
